ChEMBL document CHEMBL4270535, “Facile synthesis of vanillin-based novel bischalcones identifies one that induces apoptosis and displays synergy with Artemisinin in killing chloroquine resistant Plasmodium falciparum” (Eur J Med Chem, 2018)

How the values were obtained:
[1] = Resistance index, ratio of IC50 for synchronized ring stage of chloroquine-resistant Plasmodium falciparum INDO infected in human erythrocytes to IC50 for synchronized ring stage of chloroquine-sensitive Plasmodium falciparum 3D7 infected in human erythrocytes; format: functional
[2] = tested on: Plasmodium falciparum; test: Antiplasmodial activity against synchronized ring stage of chloroquine-resistant Plasmodium falciparum INDO infected in human erythrocytes after 48 hrs by SYBR Green 1 dye based fluorescence assay; format: functional, organism-based
[3] = Selectivity index, ratio of IC50 for mouse L929 cells to IC50 for synchronized ring stage of chloroquine-sensitive Plasmodium falciparum 3D7 infected in human erythrocytes; format: toxicity, cell-based; conditions: read-out: Ratio IC50
[4] = tested on: Plasmodium falciparum; test: Potentiation of artemisinin-induced antiplasmodial activity against synchronized ring stage of chloroquine-sensitive Plasmodium falciparum 3D7 infected in human erythrocytes assessed as fold reduction in artemisinin IC50 relative to artemisinin alone; format: functional
[5] = Selectivity index, ratio of IC50 for human HeLa cells to IC50 for synchronized ring stage of chloroquine-sensitive Plasmodium falciparum 3D7 infected in human erythrocytes; format: toxicity, cell-based; conditions: read-out: Ratio IC50
[6] = Resistance index, ratio of IC50 for synchronized ring stage of chloroquine-resistant Plasmodium falciparum Dd2 infected in human erythrocytes to IC50 for synchronized ring stage of chloroquine-sensitive Plasmodium falciparum 3D7 infected in human erythrocytes; format: functional
[7] = tested on: Plasmodium falciparum; test: Antiplasmodial activity against synchronized ring stage of chloroquine-resistant Plasmodium falciparum Dd2 infected in human erythrocytes after 48 hrs by SYBR Green 1 dye based fluorescence assay; format: functional, organism-based; conditions: Dd2, 48 h

**Q.** For `C[C@@H]1CC[C@H]2[C@@H](C)C(=O)O[C@@H]3O[C@@]4(C)CC[C@@H]1[C@]32OO4` [ARTEMISININ], which “Ratio IC50” value [1] is on record?
**A.** 1

**Q.** And the IC50 [2]?
**A.** 15 nM

**Q.** What about the selectivity ratio [3] of the same compound?
**A.** > 200

**Q.** What about the “Ratio IC50” value [4] of the same compound?
**A.** 1.7 - 3.7

**Q.** And the selectivity ratio [5]?
**A.** > 200

**Q.** And the “Ratio IC50” value [6]?
**A.** 0.87

**Q.** And the IC50 [7]?
**A.** 13 nM
